The results in this text go back to US20230212571A1, “COMPOSITIONS AND METHODS FOR DELIVERING POLYNUCLEOTIDES” (NeOnc Technologies, Inc., priority 2020, published 2023).

For series [1], the system named is AVM-BEC. Description: RT-qPCR mRNA expression in AVM-BEC. The series is classed as cell-based, human. The text has this: Human surgical specimens were obtained following written informed consent from patients in accordance with Declaration of Helsinki guidelines and the Institutional Review Board (HS-04B053), at Keck School of Medicine, USC. AVM-BECs were isolated from brain tissues of patients who underwent microsurgical AVM resection. Control BECs were isolated from the structurally normal […] of patients who underwent temporal lobectomy for intractable epilepsy. Endothelial cell (EC) isolation and culture were described^5,9. (Stapleton C J, Armstrong D L, Zidovetzki R, Liu C Y, Giannotta S L, Hofman F M. Thrombospondin-1 modulates the angiogenic phenotype of human cerebral arteriovenous malformation endothelial cells. Neurosurgery. 2011; 68(5):1342-1353) (Ferreira R, Santos T, Amar A, et al. Argonaute-2 promotes miR-18a entry in human brain endothelial cells. J Am Heart Assoc. 2014; 3(3):e000968) ECs were only used between passages 3-5. Experiments were performed under shear flow conditions (12 dyn/cm^2) to reproduce arterial flow^6. (Ferreira R, Santos T, Amar A, et al. MicroRNA-18a improves human cerebral arteriovenous malformation endothelial cell function. Stroke. 2014; 45(1):293-297). For hypoxic experiments, cells were cultured in a Galaxy 48R (Eppendorf) incubator at 3% O2. MicroRNAs were co-administered with Ago-2 to increase the cellular uptake of miR-18a^9 (Ferreira R, Santos T, Amar A, et al. Argonaute-2 promotes miR-18a entry in human brain endothelial cells. J Am Heart Assoc. 2014; 3(3):e000968) (FIG. 9). Methods regarding cell treatments and transfections were included in Data.
MiR-18a (hsa-miR-18a-5p, 40 nM, Dharmacon) or a scramble microRNA (40 nM, Dharmacon) in nuclease-free water was added with argonaute 2 (Ago-2, 0.4 nM, Abcam) as the microRNA carrier and stabilizer^9. (Ferreira R, Santos T, Amar A, et al. Argonaute-2 promotes miR-18a entry in human brain endothelial cells. J Am Heart Assoc. 2014; 3(3):e000968). No transfection reagent was used with miR-18a or scramble microRNA treatments. Recombinant human TSP-1 (R&D Systems) stock solution was prepared in PBS and further diluted in culture medium to be used at a final concentration of 1000 ng/mL. Cells were treated during 24 h for mRNA and 48 h for protein expression studies. NEO100 (NeOnc Technologies) stock was prepared in DMSO and used immediately or stored at −20° C.
The extraction and analysis of total mRNA and microRNAs were described^9,13. (Ferreira R, Santos T, Amar A, et al. Argonaute-2 promotes miR-18a entry in human brain endothelial cells. J Am Heart Assoc. 2014; 3(3):e000968) (Marín-Ramos N I, Jhaveri N, Thein T Z, Fayngor R A, Chen T C, Hofman F M. NEO212, a conjugate of temozolomide and perillyl alcohol, blocks the endothelial-to-mesenchymal transition in tumor-associated brain endothelial cells in glioblastoma. Cancer Lett. 2018; 442:170-180). The Human Notch Signaling Pathway RT^2 Profiler PCR Array (Qiagen) was used to analyze the expression of 84 genes related to Notch signaling. For mRNA studies, […] (B2M) was measured for sample normalization. The primer sequences were included in Table 2. For microRNA analysis, RNU44 and U6 snRNA TaqMan microRNA Control Assays were used for normalization of human and mice samples, respectively.
(Real-time PCR tracks product formation cycle by cycle.)

Series [2] deals with AVM-BEC. Description: Invasion assay, Matrigel-coated Boyden chamber, AVM-BEC. The series is classed as cell-based, human. Conditions: overnight, P=0.0012. The text has this: The chemoinvasion assay was described^14. (Marín-Ramos N I, Thein T Z, Cho H-Y, et al. NEO212 inhibits migration and invasion of glioma stem cells. Mol Cancer Ther. 2018; 17(3):625-637). Pictures were captured using an Eclipse 80i microscope (Nikon), and cells counted with ImageJ Software (NIH).

The test system of series [3] is BMP4 3′UTR. Briefly: BMP4 3′UTR luciferase reporter in ECs. The series is classed as cell-based, human. Conditions: vs untreated or scramble microRNA, n=6. As to the method: Plasmid constructs pcDNA3-ALK2^WT (Addgene #80870) and pcDNA3-ALK2^Q207D (Addgene #80871) were a gift from Aristidis Moustakas^7. (Meyer B, Schaller C, Frenkel C, Ebeling B, Schramm J. Distributions of local oxygen saturation and its response to changes of mean arterial blood pressure in the cerebral cortex adjacent to arteriovenous malformations. Stroke. 1999; 30(12):2623-2630) 10^4 AVM-BEC were seeded 24 h before transfection. The plasmid vector containing the 3′ untranslated region (3′UTR) of human BMP4, pRP [Exp]-Puro-CMV>Luciferase:{hBMP4_3′UTR}, was constructed and packaged by VectorBuilder. The vector ID is VB200205-1078zdv, which can be used to retrieve detailed information about the vector on vectorbuilder.com. Transient transfections were performed with Lipofectamine RNAiMax (Thermo Fisher Scientific) according to the manufacturer's instructions. After 4 h, medium was replaced by fresh medium containing microRNA.
For the experiments regarding the direct binding of miR-18a to BMP4 (information about the plasmid was included in Methods), the luciferase activity of the hBMP4 3′UTR was read in a Varioskan™ LUX multimode microplate reader (Thermo Fisher Scientific).
In general terms: Reporter assays use an easily measured gene product as a stand-in for the process of interest.

The nature of series [4]: Pharmacokinetic study of miR-18a in serum and brain by RT-qPCR. Format: in vivo, C57BL/6 mice. The text has this:
All animal protocols were approved by the USC's Institutional Animal Care and Use Committee (IACUC) and strictly adhered to. MiR-18a was co-administered with Ago-2 (0.0008 nmol/mouse) to increase stability and cellular uptake^9 (Ferreira R, Santos T, Amar A, et al. Argonaute-2 promotes miR-18a entry in human brain endothelial cells. J Am Heart Assoc. 2014; 3(3):e000968). (FIG. 9). Details about randomization, blinding, group size and inclusion/exclusion criteria have been included in Methods.
For pharmacokinetic measurements, 0.8 nmol/mouse of miR-18a were administered IV or IN to C57BL/6 mice. At the indicated time points, mice were euthanized, and the serum and brains were collected and flash-frozen in liquid nitrogen (n=6 per time-point and condition). MicroRNAs were isolated using the mirVana™ miRNA Isolation Kit and measured by RT-qPCR as described above.

On to “hsa-miR-18a-5p (UAGGUGCAUCUAGUGCAGAUAG; chemistry not given here; listed as Homo sapiens) [small non-coding RNA molecule involved in post-transcriptional regulation of gene expression; Dharmacon]”, for which the “BMP4 mRNA expression” value in series [1] (AVM-BEC, 24 h, vs scramble, P=0.0022) is recorded as “normalized”. Also, the “MMP2 mRNA expression” value in series [1] (AVM-BEC, P=0.0004) is “normalized”. Besides, the “MMP9 mRNA expression” value in series [1] (AVM-BEC, P=0.0091) is given as “normalized”. Also, the HIF-1α expression result is on record as “remained unaltered” in series [1] (AVM-BEC, hypoxia 3% O2) and “significantly (P=0.0025) decreased” in series [1] (AVM-BEC, normoxia). For the same substance, the “ALK2 mRNA expression” value in series [1] (AVM-BEC, vs scramble, P<0.0001) is “normalized”. Further, the “MGP mRNA expression” value in series [1] (AVM-BEC, vs scramble, P<0.0001) is reported as “normalized”. Further, the “ALK1 mRNA expression” value in series [1] (AVM-BEC, vs scramble, P=0.0013) is recorded as “normalized”. Also, the “ALK5 mRNA expression” value in series [1] (AVM-BEC, vs scramble, P=0.0072) is “normalized”. Moreover, in series [1] (non-HHT related AVM-BEC, P>0.05), the “BMP9 mRNA expression” value was “No significant differences”. Further, in series [2], the invasiveness entry was “decreased”. The “BMP4-3′-UTR-Luc activity” value in series [3] is “significantly (P<0.001) decreased”. Further, the “miR-18a levels compared to scramble microRNA-treated mice” value in series [4] (0.8 nmol/mouse IV or IN, C57BL/6 mice) is given as “approximately 40 times”. In series [4] (0.8 nmol/mouse, IN administration), the “retention of miR-18a, IN compared with IV” value was “longer retention times”. In addition, the “time of highest levels of miR-18a in serum and brains, IV compared with IN” value in series [4] (0.8 nmol/mouse, IV administration) is on record as “earlier”. In addition, in series [4] (IN administration, 0.8 nmol/mouse), the “amount of microRNA in the brain, times the basal levels of miR-18a” value was “approximately 40 times”. Moreover, in series [4] (IN administration, brain), the “time required to reach the peak levels” value turned out to be 2 h.
